In patent US9200286B2 (THE RESEARCH FOUNDATION FOR THE STATE UNIVERSITY OF NEW YORK, priority 2010, dated 2015):
Read-outs that look alike come from different tables or passages of the source.

How the values were obtained:
GluA2Qflip AMPA receptor = GluA2Qflip AMPA receptor (Rattus norvegicus, UniProt P19491); conditions: for Ki: from A/A(I) vs inhibitor concentration; for inhibition by A/A(I), ratio of whole-cell current amplitude in absence and presence of aptamer: 1 μM aptamer (FIG. 3, FIG. 5)
Chain of GluA2Qflip AMPA receptor (P19491 22-883 isoform P19491-2 limits assumed): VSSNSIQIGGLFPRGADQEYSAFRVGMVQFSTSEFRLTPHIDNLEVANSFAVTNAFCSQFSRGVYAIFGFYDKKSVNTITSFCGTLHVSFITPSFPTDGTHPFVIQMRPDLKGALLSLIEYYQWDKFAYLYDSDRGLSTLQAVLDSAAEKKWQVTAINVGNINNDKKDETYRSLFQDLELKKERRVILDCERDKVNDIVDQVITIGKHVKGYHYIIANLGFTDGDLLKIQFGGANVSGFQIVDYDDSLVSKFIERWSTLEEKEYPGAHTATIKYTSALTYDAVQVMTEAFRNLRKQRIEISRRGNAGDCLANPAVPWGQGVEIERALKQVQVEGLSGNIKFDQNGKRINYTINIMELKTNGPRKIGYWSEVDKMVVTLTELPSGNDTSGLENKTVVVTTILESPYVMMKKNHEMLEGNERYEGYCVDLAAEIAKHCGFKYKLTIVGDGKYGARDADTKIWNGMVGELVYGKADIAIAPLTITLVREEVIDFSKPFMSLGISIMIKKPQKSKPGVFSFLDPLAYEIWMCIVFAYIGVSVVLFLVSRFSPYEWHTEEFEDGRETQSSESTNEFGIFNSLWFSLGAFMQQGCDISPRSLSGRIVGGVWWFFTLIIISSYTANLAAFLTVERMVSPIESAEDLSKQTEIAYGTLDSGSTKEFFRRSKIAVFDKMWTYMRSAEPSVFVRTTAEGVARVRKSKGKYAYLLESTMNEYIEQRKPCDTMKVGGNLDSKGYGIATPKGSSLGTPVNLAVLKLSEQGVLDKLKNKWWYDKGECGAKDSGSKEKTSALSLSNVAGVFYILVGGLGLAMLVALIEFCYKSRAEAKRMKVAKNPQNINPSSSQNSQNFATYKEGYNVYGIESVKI
Description: The putative inhibitory property of the four sequences was then functionally tested by the use of whole-cell current recording with GluA2Qflip expressed in HEK-293 cells. […] The current was recorded at −60 mV, pH 7.4 and 22° C. with the same HEK-293 cells expressing GluA2Qflip that were used for selection.
The procedure for whole-cell current recording used to assay putative aptamers is known in the art. For the present invention, all recordings were at −60 mV and 22° C. The recording electrode was filled with the buffer (in mM): 110 CsF, 30 CsCl, 4 NaCl, 0.5 CaCl2, 5 EGTA, and 10 HEPES (pH 7.4 adjusted by CsOH). The extracellular buffer composition used is described supra. All other buffers used were previously described. The whole-cell current was recorded using an Axopatch 200B amplifier at a cutoff frequency of 2-20 kHz by a built-in, four-pole Bessel filter and digitized at 5-50 kHz sampling frequency using a Digidata 1322A (Molecular Devices). pClamp 8 (Molecular Devices, Sunnyvale Calif.) was used for data acquisition.
Using whole-cell recording, the putative inhibitory property for each aptamer was tested with HEK 293 cells expressing GluA2Qflip receptors and expressed as the ratio of the whole-cell current amplitude in the absence and presence of an aptamer, that is, A/A(I). The current was recorded at −60 mV, pH 7.4 and 22° C. with the same HEK-293 cell expressing GluA2Qflip.
Selected RNA sequences were assayed using whole-cell current recording with GluA2Qflip. […] The third round of the library or “pool 3” at 1 μM was used as a control. The ‘*’ indicates P≦0.05 from the two-tailed Student's t test (H0: μ=μ0=1, 1 being the theoretical value of no inhibition, marked as the dashed line).
The ratio of the whole-cell current amplitude in the absence and presence of a putative aptamer or A/A(I) as a function of aptamer concentration was used to independently measure inhibition constants (29), as illustrated in Equations 7a and 7b (29). These equations were derived based on the same general mechanism of channel opening described earlier. KI, app is the apparent inhibition constant for the inhibitor;
Thus the inhibition constant for the closed-channel conformation or state was determined from A/A(I) vs. inhibitor concentration by Equations 7a and 7b. Likewise, at a saturating ligand concentration (i.e., L>>K1), the majority of the receptors were in the open-channel state. Thus the inhibition constant for the open-channel state was determined.
The original cDNAs in pBlueScript encoding rat GluA1, 2 and 3 AMPA receptors and GluK2 kainate receptor were kindly provided by Steve Heinemann. The GluA4 DNA plasmid was kindly provided by Peter Seeburg. The GluK1 plasmid was kindly provided by Geoffrey Swanson. The cDNAs of all three NMDA receptor subunits were gifts from John Woodward. All DNA plasmids were propagated using Escherichia coli host (DH5α) and purified using QIAGEN DNA purification kits.
All of the receptors were transiently expressed in HEK-2935 cell. HEK-293S cells were maintained in Dulbecco's modified Eagle's medium (DMEM) supplemented with 10% fetal bovine serum and 1% penicillin in a 37° C., 5% CO2, humidified incubator. Receptors were transiently transfected by using calcium phosphate or lipofectamine 2000 (Invitrogen). The DNA plasmids encoding green fluorescent protein (GFP) and T-antigen (TAg) were cotransfected in HEK-293S cells. GFP was used as a transfection marker for cell recording, and TAg was cotransfected to potentiate the receptor expression at the single-cell level (51). Transfected cells were allowed to grow for 48 hour before they were used for recording.
The procedure for whole-cell current recording to assay the inhibitory property of an RNA aptamer is known to those of skill in the art and has been previously described (47). […] The extracellular buffer composition is described above (see “Receptor Preparation”).

GluA1flip = GluA1flip (Rattus norvegicus, UniProt P19490); experiment: Subunit selectivity, whole-cell recording, GluA1; format: cell-based; conditions: closed- and open-channel glutamate concentrations
Chain of GluA1flip (P19490 19-907 isoform P19490-2 limits assumed): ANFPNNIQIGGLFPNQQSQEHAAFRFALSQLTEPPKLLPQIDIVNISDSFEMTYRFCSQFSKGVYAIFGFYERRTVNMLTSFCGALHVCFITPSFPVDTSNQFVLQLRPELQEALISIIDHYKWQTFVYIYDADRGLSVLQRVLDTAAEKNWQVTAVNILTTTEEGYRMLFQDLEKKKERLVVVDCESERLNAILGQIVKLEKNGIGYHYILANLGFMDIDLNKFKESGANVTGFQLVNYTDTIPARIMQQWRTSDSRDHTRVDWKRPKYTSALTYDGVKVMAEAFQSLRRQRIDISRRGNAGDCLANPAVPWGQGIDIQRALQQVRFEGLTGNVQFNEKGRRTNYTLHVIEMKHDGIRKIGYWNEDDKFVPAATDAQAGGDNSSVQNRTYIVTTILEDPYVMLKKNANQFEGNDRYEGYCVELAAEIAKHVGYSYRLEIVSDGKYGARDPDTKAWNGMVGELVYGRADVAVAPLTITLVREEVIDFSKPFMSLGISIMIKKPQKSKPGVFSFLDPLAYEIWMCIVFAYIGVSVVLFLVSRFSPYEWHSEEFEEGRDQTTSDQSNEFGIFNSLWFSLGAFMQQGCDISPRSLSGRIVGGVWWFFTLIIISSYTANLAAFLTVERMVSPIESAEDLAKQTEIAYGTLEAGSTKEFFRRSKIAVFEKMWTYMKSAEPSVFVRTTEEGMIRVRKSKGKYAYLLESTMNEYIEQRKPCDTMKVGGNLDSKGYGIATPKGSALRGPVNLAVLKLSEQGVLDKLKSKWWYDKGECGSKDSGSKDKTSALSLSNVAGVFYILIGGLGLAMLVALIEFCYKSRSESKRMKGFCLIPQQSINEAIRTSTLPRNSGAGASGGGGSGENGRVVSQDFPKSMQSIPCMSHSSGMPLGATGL
Description: The subunit selectivity of AF44/AF42 was assessed with individual subunits of AMPA, kainate and NMDA receptors expressed in HEK-293 cells, and was represented by A/A(I) value collected from whole-cell recording (FIG. 8A).
All of the receptors were transiently expressed in HEK-2935 cell. HEK-293S cells were maintained in Dulbecco's modified Eagle's medium (DMEM) supplemented with 10% fetal bovine serum and 1% penicillin in a 37° C., 5% CO2, humidified incubator. Receptors were transiently transfected by using calcium phosphate or lipofectamine 2000 (Invitrogen). The DNA plasmids encoding green fluorescent protein (GFP) and T-antigen (TAg) were cotransfected in HEK-293S cells. GFP was used as a transfection marker for cell recording, and TAg was cotransfected to potentiate the receptor expression at the single-cell level (51). […]
For recording of the NMDA channels, the intracellular solution contained (in mM) 140 CsCl, 1 MgCl2, 0.1 EGTA, and 10 HEPES (pH 7.2 adjusted by Mg(OH)2), while the extracellular solution contained (in mM) 135 NaCl, 5.4 KCl, 1.8 CaCl2, 10 glucose and 5 HEPES (pH 7.2 adjusted by NaOH). […] The whole-cell current was recorded using an Axopatch-200B amplifier at a cutoff frequency of 2-20 kHz by a built-in, eight-pole Bessel filter and digitized at 5-50 kHz sampling frequency using a Digidata 1322A from Axon Instruments (Molecular Devices, Sunnyvale, Calif.). […]

GluA2Qflip receptor = GluA2Qflip receptor (Rattus norvegicus, UniProt P19491); experiment: Homologous competition binding assay (cold vs hot aptamer); conditions: for binding to the receptor in the presence of NBQX: competitive inhibitor, data not shown; for Kd: triplicate data sets
Chain of GluA2Qflip receptor (P19491 22-883 isoform P19491-2 limits assumed): as the sequence (P19491 22-883 isoform P19491-2 limits assumed) above
Description: (§1) In fact, in a homologous competition binding experiment (42) in which the non-radiolabeled aptamer (or cold aptamer) was used to compete against the same, but radiolabeled, aptamer (or hot aptamer), AF44 bound to not only the closed-channel conformation (i.e., the unliganded, closed-channel receptor form) but also the open-channel conformation (FIG. 10). […] The binding results were consistent with noncompetitive sites, because these sites were supposed to be accessible through both the closed- and the open-channel conformations. […] These sites were noncompetitive type because binding to the receptor by either AF44 or AF42 or the full length AF1422 was unaffected in the presence of NBQX, a classic competitive inhibitor.
as §1, with “inhibitor (data not shown).” for “inhibitor.”

[1] = open-channel GluA2Qflip, read-out: Kd, open-channel conformation
[2] = unliganded, closed-channel GluA2Qflip, read-out: Kd, closed-channel conformation

Molecule: CNC(=O)N1N=C(c2ccc(N)cc2)c2cc3c(cc2CC1C)OCO3 (stereo not shown) [BDZ-f, 1-(4-aminophenyl)-3-methylcarbamoyl-4-methyl-7,8-methylenedioxy-3,4-dihydro-5H-2,3-benzodiazepine, reference compound]
- inhibition of the non-desensitizing phase of the receptor response (GluA2Qflip AMPA receptor; 0.1 mM glutamate, AF44/AF42 up to 12.5 μM, BDZ-f up to 20 μM): uninhibited
- inhibition of GluA2Qflip in the subunit selectivity test, A/A(I) (GluA2Qflip AMPA receptor; FIG. 8A/8B, two glutamate concentrations): inhibited
- Ki (GluA2Qflip AMPA receptor; KI for the closed-channel conformation, 100 μM glutamate, -60 mV, 22 °C): 3.8 ± 0.4 µM
- Ki (GluA2Qflip AMPA receptor; KI for the open-channel conformation, 3 mM glutamate): 5.4 ± 0.8 µM
- effect on GluA1, A/A(I) (GluA1flip): inhibited

Molecule: AF20: truncated AF1422 containing only the 5' stem loop, SEQ ID NO: 7 (GGGAGAAUUCAACUGCCAUC; listed as RNA, chemistry not fully specified)
- inhibition by A/A(I), ratio of whole-cell current amplitude in absence and presence of aptamer (GluA2Qflip AMPA receptor; 100 μM glutamate): not sufficient to act either alone as an inhibitor or together with AF42 as an inhibitory pair

Molecule: AF38: AF42 with terminal loop removed, SEQ ID NO: 6 (GGGUCGUUAGAGCAUCAGUACACCAACGGUGCGAGCCC; listed as RNA, chemistry not fully specified)
- inhibition by A/A(I), ratio of whole-cell current amplitude in absence and presence of aptamer (GluA2Qflip AMPA receptor; 100 μM glutamate): total loss of function

Molecule: AF42: 42-nucleotide RNA truncated from AF1422, SEQ ID NO: 5 (GGGAACGGUGCCAGUCCGAAACGGAUCGUUAGAGCAUCAGUA; listed as RNA, chemistry not given here)
- inhibition by A/A(I), ratio of whole-cell current amplitude in absence and presence of aptamer (GluA2Qflip AMPA receptor; 100 μM glutamate): did not render any inhibition
- binding to the receptor in the presence of NBQX (GluA2Qflip receptor): unaffected
- Kd (GluA2Qflip receptor; [1]): 44 ± 11 nM
- Kd (GluA2Qflip receptor; [2]): 57 ± 21 nM

Molecule: AF44: 44-nucleotide RNA truncated from AF1422, G22 replaced with A22, SEQ ID NO: 4 (GGGAGAAUUCAACUGCCACGGAUAAUAGCCAAUACUACAACCGU; listed as RNA, chemistry not given here)
- inhibition by A/A(I), ratio of whole-cell current amplitude in absence and presence of aptamer (GluA2Qflip AMPA receptor; 100 μM glutamate): did not render any inhibition
- binding to the receptor in the presence of NBQX (GluA2Qflip receptor): unaffected
- Kd (GluA2Qflip receptor; [1]): 48 ± 13 nM
- Kd (GluA2Qflip receptor; [2]): 44 ± 18 nM

B1: AF1422: RNA aptamer, SEQ ID NO: 1, most enriched SELEX sequence binding closed-channel GluA2Qflip (nucleic acid)
chain: GGGAGAAUUCAACUGCCAUCUAGGCAGAAGUGUAAUAGCCAACGGUGCCAGUCCGAAACGGAUCGUUAGAGCAUCAGUACUACAAGCUUCUGGACUCGGU
modifications: listed as RNA, chemistry not given here
- inhibition by A/A(I), ratio of whole-cell current amplitude in absence and presence of aptamer (GluA2Qflip AMPA receptor; 100 μM glutamate): one of the most potent inhibitors
- inhibition of closed-channel versus open-channel conformation (GluA2Qflip AMPA receptor; low (100 μM) vs high (3 mM) glutamate): inhibited the closed-channel, preferentially over the open-channel
- binding to the receptor in the presence of NBQX (GluA2Qflip receptor): unaffected

B2: AF78: truncated sequence of AF1422, SEQ ID NO: 3, lacking the 5' stem-loop (nucleic acid)
chain: GGGAGCCAGAAGUGUAAUAGCCAACGGUGCCAGUCCGAAACGGAUCGUUAGAGCAUCAGUACUACAAGCUUCUGGACU
modifications: listed as RNA, chemistry not fully specified
- inhibition by A/A(I), ratio of whole-cell current amplitude in absence and presence of aptamer (GluA2Qflip AMPA receptor; 100 μM glutamate): non-inhibitory
